Experimental data taken from ChEMBL document CHEMBL5126552, “Discovery of small-molecule compounds and natural products against Parkinson's disease: Pathological mechanism and structural modification” (Eur J Med Chem, 2022).
Each block holds one molecule with its values, some of them ahead of it.

Key:
Adenosine receptor A2a [1] = target: Adenosine receptor A2a (Homo sapiens, UniProt P29274); experiment: Antagonist activity at human adenosine A2A receptor
[2] = Inhibition of Monoamine oxidase in MPTP-induced C57BL/6 mouse assessed as inhibition constant
animal or person = settings: Mus musculus, po, 6 h, read-out: INH
[3] = Agonist activity at D3 receptor in mouse MN9D cells assessed as increase in GTPgammaS binding
[4] = Agonist activity at D2 receptor in mouse MN9D cells assessed as increase in GTPgammaS binding
[5] = target: T1, Amine oxidase [flavin-containing] B (Homo sapiens, UniProt P27338); experiment: Inhibition of human MAO-B
T1 sequence (P27338 whole entry): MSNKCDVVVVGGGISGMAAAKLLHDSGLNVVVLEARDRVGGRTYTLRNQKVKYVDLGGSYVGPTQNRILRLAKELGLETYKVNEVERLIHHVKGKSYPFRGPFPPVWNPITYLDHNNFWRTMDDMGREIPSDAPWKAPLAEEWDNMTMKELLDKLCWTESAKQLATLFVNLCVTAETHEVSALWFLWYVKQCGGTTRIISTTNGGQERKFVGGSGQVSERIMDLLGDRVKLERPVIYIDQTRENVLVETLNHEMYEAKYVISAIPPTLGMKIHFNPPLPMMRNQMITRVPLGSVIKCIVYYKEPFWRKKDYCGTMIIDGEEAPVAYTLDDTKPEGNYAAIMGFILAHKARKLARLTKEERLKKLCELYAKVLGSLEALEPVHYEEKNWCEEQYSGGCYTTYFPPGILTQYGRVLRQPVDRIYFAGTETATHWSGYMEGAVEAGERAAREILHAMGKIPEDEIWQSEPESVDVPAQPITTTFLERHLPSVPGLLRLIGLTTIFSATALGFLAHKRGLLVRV

D(2) dopamine receptor [6] = target: T2, D(2) dopamine receptor (Homo sapiens, UniProt P14416)
Description: Agonist activity at dopamine D2 receptor (unknown origin)

Adenosine receptor A2a [7] = target: Adenosine receptor A2a (Rattus norvegicus, UniProt P30543); experiment: Antagonist activity at rat adenosine A2A receptor
Adenosine receptor A1 [8] = target: T3, Adenosine receptor A1 (Rattus norvegicus, UniProt P25099); experiment: Antagonist activity at rat adenosine A1 receptor
T3 sequence (P25099 whole entry): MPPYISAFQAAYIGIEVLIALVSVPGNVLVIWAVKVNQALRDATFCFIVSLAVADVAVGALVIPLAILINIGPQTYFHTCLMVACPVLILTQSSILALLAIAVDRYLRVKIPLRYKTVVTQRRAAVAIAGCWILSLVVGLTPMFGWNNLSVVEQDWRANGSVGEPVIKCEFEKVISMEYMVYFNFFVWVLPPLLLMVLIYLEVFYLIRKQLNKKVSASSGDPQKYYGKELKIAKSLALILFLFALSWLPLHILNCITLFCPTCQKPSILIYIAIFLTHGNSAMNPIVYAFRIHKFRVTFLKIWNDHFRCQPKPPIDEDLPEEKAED

D(3) dopamine receptor [9] = target: T4, D(3) dopamine receptor (Homo sapiens, UniProt P35462); experiment: Agonist activity at dopamine D3 receptor (unknown origin)
[10] = Displacement of [3H]-spiperone from D2 receptor in rat striatum incubated for 90 mins by competitive radioligand binding based scintillation counter analysis
[11] = Displacement of [3H]-SCH23390 from D1 receptor in rat striatum incubated for 30 mins by competitive radioligand binding based scintillation counter analysis
[12] = Plasma concentration in 6-OHDA-unilateral lesioned mouse model of Parkinson's disease at 50 mg/kg,ip measured after 4 hrs
[13] = Drug concentration in 6-OHDA-unilateral lesioned mouse model of Parkinson's disease assessed as brain concentration at 50 mg/kg,ip measured after 4 hrs
[14] = Metabolic stability at human liver microsomes assessed as half life
[15] = Metabolic stability at human liver microsomes assessed as intrinsic clearance
Adenosine receptor A1 [16] = target: T5, Adenosine receptor A1 (Homo sapiens, UniProt P30542)
T5 sequence (P30542 whole entry): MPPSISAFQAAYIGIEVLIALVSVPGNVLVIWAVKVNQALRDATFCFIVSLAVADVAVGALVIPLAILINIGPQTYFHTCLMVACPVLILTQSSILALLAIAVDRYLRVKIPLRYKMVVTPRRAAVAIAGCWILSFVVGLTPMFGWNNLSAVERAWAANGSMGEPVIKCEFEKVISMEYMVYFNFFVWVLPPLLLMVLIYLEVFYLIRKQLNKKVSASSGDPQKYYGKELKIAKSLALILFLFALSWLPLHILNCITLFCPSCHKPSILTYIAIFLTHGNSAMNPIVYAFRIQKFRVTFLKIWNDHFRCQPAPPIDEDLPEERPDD
Description: Antagonist activity at human adenosine A1 receptor

[17] = Inhibition of c-Jun phosphorylation in streptozotocin stimulated rat INS1 cells using TMB as substrate incubated for 16 hrs by microplate reader assay; settings: INS1, 16 h
in vivo [18] = settings: rat, po, 3 mg/kg
[19] = Half life in rat at 3 mg/kg,po; settings: in vivo
[20] = Agonist activity at rat mGlu4 receptor assessed as increase in calcium flux
in vivo [21] = settings: rat, po, 15 mg/kg
Description: Oral bioavailability in 6-OHDA-unilateral lesioned rat model of Parkinson's disease at 15 mg/kg

D(3) dopamine receptor [22] = target: T4, D(3) dopamine receptor; experiment: Agonist activity at dopamine D3 receptor (unknown origin) assessed as increase in GTPgammaS binding
D(2) dopamine receptor [23] = target: T2, D(2) dopamine receptor; remark: listed apart in the source

T2 sequence (P14416 whole entry): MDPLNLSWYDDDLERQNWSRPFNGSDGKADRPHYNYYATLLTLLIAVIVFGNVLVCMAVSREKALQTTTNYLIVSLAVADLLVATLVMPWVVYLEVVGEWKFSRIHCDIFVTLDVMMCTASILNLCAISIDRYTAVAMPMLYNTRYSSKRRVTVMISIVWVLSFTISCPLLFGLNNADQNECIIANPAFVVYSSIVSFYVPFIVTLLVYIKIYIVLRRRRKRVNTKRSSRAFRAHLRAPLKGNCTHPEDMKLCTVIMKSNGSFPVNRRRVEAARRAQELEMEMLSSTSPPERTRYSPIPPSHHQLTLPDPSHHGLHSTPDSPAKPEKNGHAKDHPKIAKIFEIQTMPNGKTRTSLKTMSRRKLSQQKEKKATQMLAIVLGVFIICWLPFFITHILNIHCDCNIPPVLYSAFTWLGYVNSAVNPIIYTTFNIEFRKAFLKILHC
Adenosine receptor A2a (Homo sapiens, UniProt P29274), sequence (P29274 whole entry): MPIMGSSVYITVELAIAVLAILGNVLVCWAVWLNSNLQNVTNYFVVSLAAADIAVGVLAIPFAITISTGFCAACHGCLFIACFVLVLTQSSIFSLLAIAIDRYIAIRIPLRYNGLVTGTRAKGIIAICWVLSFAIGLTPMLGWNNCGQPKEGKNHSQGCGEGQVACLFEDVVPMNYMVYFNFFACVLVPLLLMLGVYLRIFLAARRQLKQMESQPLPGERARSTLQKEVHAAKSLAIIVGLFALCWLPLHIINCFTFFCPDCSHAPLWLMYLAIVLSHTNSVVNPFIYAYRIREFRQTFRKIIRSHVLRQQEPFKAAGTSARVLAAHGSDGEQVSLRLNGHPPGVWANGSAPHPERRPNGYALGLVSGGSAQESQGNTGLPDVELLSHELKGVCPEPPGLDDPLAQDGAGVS
Adenosine receptor A2a (Rattus norvegicus, UniProt P30543), sequence (P30543 whole entry): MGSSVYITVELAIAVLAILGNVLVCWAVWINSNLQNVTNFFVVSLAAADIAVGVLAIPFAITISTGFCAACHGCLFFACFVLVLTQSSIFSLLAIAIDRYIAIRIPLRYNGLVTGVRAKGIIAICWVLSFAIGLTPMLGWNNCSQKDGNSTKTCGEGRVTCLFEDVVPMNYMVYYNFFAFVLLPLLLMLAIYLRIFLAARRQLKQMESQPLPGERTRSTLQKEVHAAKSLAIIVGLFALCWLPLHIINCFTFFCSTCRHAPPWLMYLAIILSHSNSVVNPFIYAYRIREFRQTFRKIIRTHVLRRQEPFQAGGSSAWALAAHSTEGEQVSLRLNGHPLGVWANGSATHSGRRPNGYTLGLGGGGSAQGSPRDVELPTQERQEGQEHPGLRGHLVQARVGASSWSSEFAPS
T4 sequence (P35462 whole entry): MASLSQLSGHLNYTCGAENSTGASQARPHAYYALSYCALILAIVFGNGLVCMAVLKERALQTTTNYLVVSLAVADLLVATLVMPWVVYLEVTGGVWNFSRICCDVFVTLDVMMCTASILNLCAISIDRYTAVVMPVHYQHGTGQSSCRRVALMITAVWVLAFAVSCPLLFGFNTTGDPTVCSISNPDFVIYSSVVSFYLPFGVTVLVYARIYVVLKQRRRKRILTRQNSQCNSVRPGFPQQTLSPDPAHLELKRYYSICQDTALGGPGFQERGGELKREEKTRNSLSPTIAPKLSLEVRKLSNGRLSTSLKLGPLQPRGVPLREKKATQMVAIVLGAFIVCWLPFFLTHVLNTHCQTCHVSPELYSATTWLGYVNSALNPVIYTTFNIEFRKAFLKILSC

Ki (Adenosine receptor A2a [1]): 0.22 nM
SMILES: COC[C@H]1CCCN1c1cc(Nc2ccccn2)nc(-n2cccn2)n1

Ki [2]: 6000 nM
SMILES: CC1=C(C)C(=O)c2cc(C)ccc2C1=O

SMILES: O=C(CCN1CCN(c2cccc(C(F)(F)F)c2)CC1)c1cc(O)c(O)c([N+](=O)[O-])c1
inhibition in vivo at 30 mg/kg (animal or person): 74%

EC50 [3]: 0.26 nM
EC50 [4]: 114 nM
SMILES: CCCN(CCN1CCN(c2ccc3[nH]ccc3c2Cl)CC1)[C@H]1CCc2nc(N)sc2C1

IC50 [5]: 5.1 nM
SMILES: C/C(=N\NC(=O)c1cc(-c2ccccc2)on1)c1ccc(C)cc1

EC50 [3]: 1.26 nM
EC50 [4]: 2.96 nM
SMILES: CCCN(CCN1CCN(C(=O)c2cc3ccccc3[nH]2)CC1)[C@H]1CCc2nc(N)sc2C1

EC50 (D(2) dopamine receptor [6]): 51.6 nM
SMILES: CCCN(CCN1CCN(c2ccc(-c3ccccn3)nc2)CC1)[C@H]1CCc2nc(N)sc2C1

IC50 [5]: 5.9 nM
SMILES: COc1ccc(/C(C)=N/NC(=O)c2cc(-c3ccccc3)on2)cc1OC

Ki (Adenosine receptor A2a [7]): 10 nM
Ki (Adenosine receptor A1 [8]): > 250 nM
SMILES: Nc1nc(NC[C@H]2CCCN2Cc2ccnc(Cl)c2)nc2nc(-c3ccco3)nn12

EC50 (D(3) dopamine receptor [9]): 2.91 nM
EC50 (D(2) dopamine receptor [6]): 9.98 nM
SMILES: CCCN(CCN1CCN(c2ccccc2)CC1)[C@H]1CCc2ccc(O)cc2C1

Ki [10]: 1.31 nM
Ki [11]: 19.8 nM
SMILES: CCCN1CCC[C@H]2c3[nH]c4ccccc4c3CC[C@@H]21

concentration at 4 h [12]: 100 µM
concentration at 4 h [13]: 100 µM
SMILES: Cc1cc(Oc2nccc3occc23)ccc1-c1c(C)c(=O)[nH]c(=O)n1C

half-life [14]: 53 min
CLint scaled [15]: 34 mL/min/kg
SMILES: CO[C@@H]1CCN(c2cccc(-c3nc(-n4nc(C)cc4C)nc(N)c3C#N)n2)C1

Ki (Adenosine receptor A1 [16]): > 540 nM
SMILES: Cc1cccc(Nc2nc(NCCCO)nc3c2cnn3-c2ccccc2)c1

SMILES: Cc1ccc(-c2ncn(-c3ccc(Nc4nccc(-c5cccc(N6CCOCC6)c5)n4)cc3)n2)cn1
IC50 [17]: 216 nM

bioavailability (in vivo [18]): 7%
half-life [19]: 30 min
SMILES: Cn1nc(C(F)(F)F)c(CN2CCN(c3nc(N)n4nc(-c5ccco5)nc4n3)CC2)c1Cl

Ki [10]: 1.09 nM
Ki [11]: 2.15 nM
SMILES: C#CCN1CCC[C@H]2c3[nH]c4ccccc4c3CC[C@@H]21

EC50 [20]: 46 nM
bioavailability (in vivo [21]): 95%
SMILES: Fc1ccc(Nc2n[nH]c3cccnc23)cc1Cl

Ki (Adenosine receptor A2a [7]): 9.54 nM
Ki (Adenosine receptor A1 [8]): 6.34 nM
SMILES: Cc1ccc(-c2cc(-c3cccc(C(=O)N4CCCCC4)c3)nc(N)n2)o1

EC50 (D(3) dopamine receptor [22]): 0.87 nM
EC50 (D(2) dopamine receptor [23]): 0.23 nM
SMILES: CCCN(CCN1CCN(c2ccc3c(c2)[nH]c2ccccc23)CC1)[C@H]1CCc2c(O)cccc2C1

IC50 [5]: 12400 nM
SMILES: CNCc1cc(=O)oc2c(O)c(O)ccc12

SMILES: Nc1nc(N2CCN3CCC[C@@H]3C2)cc2nc(-c3ccco3)nn12
Ki (Adenosine receptor A2a [1]): 63 nM
Ki (Adenosine receptor A1 [16]): 1100 nM
